Calls of active or inactive are those of the source. The calls are words filed in the database; no cut-off is given here.

T1 sequence (Q8NER1 whole entry): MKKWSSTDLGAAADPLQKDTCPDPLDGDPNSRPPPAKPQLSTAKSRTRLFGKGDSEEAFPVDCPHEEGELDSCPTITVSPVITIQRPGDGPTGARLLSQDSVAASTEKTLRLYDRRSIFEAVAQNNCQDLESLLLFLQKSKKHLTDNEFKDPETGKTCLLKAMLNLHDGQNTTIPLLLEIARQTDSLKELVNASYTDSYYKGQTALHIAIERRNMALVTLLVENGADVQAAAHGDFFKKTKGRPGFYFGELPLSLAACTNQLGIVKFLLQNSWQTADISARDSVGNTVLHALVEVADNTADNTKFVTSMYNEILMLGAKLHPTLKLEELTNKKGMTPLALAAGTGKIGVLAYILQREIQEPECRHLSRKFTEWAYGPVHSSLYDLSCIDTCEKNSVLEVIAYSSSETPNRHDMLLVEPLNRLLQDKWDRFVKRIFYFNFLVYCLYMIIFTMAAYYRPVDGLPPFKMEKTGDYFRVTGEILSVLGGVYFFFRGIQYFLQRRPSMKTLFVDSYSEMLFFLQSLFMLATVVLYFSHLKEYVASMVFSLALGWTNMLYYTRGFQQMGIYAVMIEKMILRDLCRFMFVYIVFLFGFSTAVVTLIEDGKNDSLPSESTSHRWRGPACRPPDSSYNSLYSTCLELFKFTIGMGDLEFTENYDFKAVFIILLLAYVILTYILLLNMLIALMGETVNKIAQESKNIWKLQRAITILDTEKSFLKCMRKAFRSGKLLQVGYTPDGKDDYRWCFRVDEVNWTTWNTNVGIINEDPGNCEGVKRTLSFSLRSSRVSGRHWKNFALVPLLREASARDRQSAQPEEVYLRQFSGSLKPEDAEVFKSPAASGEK

One data set addresses T1, Transient receptor potential cation channel subfamily V member 1 (Homo sapiens, UniProt Q8NER1). Briefly: Antagonist activity at human TRPV1 expressed in CHO-K1 cells assessed as inhibition of capsaicin-induced Ca2+ response treated with compound 6 mins prior to capsaicin addition and measured after overnight incubation by FLIPR assay.
Settings: not given
The data set is classed as cell-based.
Regarding `O=C(NCc1cc(C(F)(F)F)nn1-c1ccc(Cl)cc1)Nc1cccc2[nH]ncc12`, the Ki (in general, a measure of affinity in units of concentration, obtained from inhibition or displacement) amounted to 2.5 nM.

Consider `Cn1ncc2c(NC(=O)NCc3cc(C(C)(C)C)nn3-c3ccc(C(F)(F)F)cc3)cccc21`, for which the Ki is 12.4 nM.

As to `Cn1ncc2cc(NC(=O)NCc3cc(C(F)(F)F)nn3-c3cccc(Cl)c3)ccc21`, the Ki amounted to 61 nM.

For the compound `Cn1ncc2c(NC(=O)NCc3cc(C(F)(F)F)nn3-c3cccc(F)c3)cccc21`, the Ki is 7 nM.

Regarding `COc1ccc(-n2nc(C(C)(C)C)cc2CNC(=O)Nc2cccc3[nH]ncc23)cc1`, the Ki turned out to be 62.9 nM. Still for that read-out and setting: with `Cn1ncc2c(NC(=O)NCc3cc(C(C)(C)C)nn3-c3cccc(Cl)c3)cccc21` the figure was 0.4 nM. Still for that read-out and setting: with `CC(C)(C)c1cc(CNC(=O)Nc2cccc3[nH]ncc23)n(-c2ccc(F)cc2)n1` the figure was 2.2 nM.

In the case of `CC(=O)n1ncc2c(NC(=O)NCc3cc(C(C)(C)C)nn3-c3cccc(Cl)c3)cccc21`, the Ki stood at 29.5 nM. On the same count and under the same terms, with `Cn1ncc2c(NC(=O)NCc3cc(C(F)(F)F)nn3-c3ccc(C(F)(F)F)cc3)cccc21` the figure was 3.9 nM; with `Cn1ncc2c(NC(=O)NCc3cc(C(F)(F)F)nn3-c3ccc(F)c(Cl)c3)cccc21`, 1.9 nM. On the same count and under the same terms, next, `O=C(NCc1cc(C(F)(F)F)nn1-c1ccc(F)c(Cl)c1)Nc1cccc2[nH]ncc12`: 0.6 nM; `Cn1ncc2c(NC(=O)NCc3cc(C(C)(C)C)nn3-c3ccc(Cl)cc3)cccc21`: 9.5 nM. The same measure, in the same setting: with `Cn1ncc2c(NC(=O)NCc3cc(C(F)(F)F)nn3-c3ccc(Cl)cc3)cccc21` the figure was 2.7 nM.

The same data set, now with this note: filed as antagonist.
For `O=C(NCc1cc(C(F)(F)F)nn1-c1cccc(Cl)c1)Nc1ccc2cn[nH]c2c1`, the inhibition entry is “Active”.

The next data set concerns the target T1, Transient receptor potential cation channel subfamily V member 1. Briefly: Agonist activity at human TRPV1 expressed in CHO-K1 cells assessed as induction of Ca2+ response treated with compound 6 mins prior to capsaicin addition and measured after overnight incubation by FLIPR assay. It is filed as cell-based. The conditions noted are these: filed as agonist.
On to `Cn1ncc2ccc(NC(=O)NCc3cc(C(C)(C)C)nn3-c3cccc(Cl)c3)cc21`, for which the result was Active.

As for `Cn1cc2c(NC(=O)NCc3cc(C(C)(C)C)nn3-c3cccc(Cl)c3)cccc2n1`, the outcome was Active.

With `Cn1ncc2cc(NC(=O)NCc3cc(C(C)(C)C)nn3-c3cccc(Cl)c3)ccc21`, the outcome was Active. Same read-out and setting: with `CC(C)(C)c1cc(CNC(=O)Nc2ccc3[nH]ncc3c2)n(-c2cccc(Cl)c2)n1` the entry was “Active”; with `Cn1cc2c(NC(=O)NCc3cc(C(F)(F)F)nn3-c3cccc(Cl)c3)cccc2n1`, “Active”.

For the next data set the target is unchanged. Briefly: Partial agonist activity at human TRPV1 expressed in CHO-K1 cells assessed as induction of Ca2+ response treated with compound 6 mins prior to capsaicin addition and measured after overnight incubation by FLIPR assay. Particulars: filed as partial agonist. The data set is classed as cell-based.
In the case of `Cc1ccc(-n2nc(C(C)(C)C)cc2CNC(=O)Nc2cccc3[nH]ncc23)cc1C`, the outcome was Active. Still for that read-out and setting: next, `Cn1ncc2ccc(NC(=O)NCc3cc(C(F)(F)F)nn3-c3cccc(Cl)c3)cc21`: “Active”. With `CC(C)(C)c1cc(CNC(=O)Nc2ccc3cn[nH]c3c2)n(-c2cccc(Cl)c2)n1`, the result was Active.

Tested on in the next data set: not listed separately
Kind of data set: In vivo antagonist activity at TRPV1 in mouse assessed as inhibition of capsaicin-induced hypothermia at 10 mg/kg, po. The data set is classed as functional.
Settings: not given
As to `Cn1ncc2c(NC(=O)NCc3cc(C(C)(C)C)nn3-c3cccc(Cl)c3)cccc21`, the inhibition in vivo (usually the percentage by which the read-out fell short of the control) at 10 mg/kg was found to be 14%.

Tested on in another data set: not listed separately
Briefly: Induction of hyperthermia in mouse assessed as effect on body temperature by measuring thermo-neutral activity at 10 mg/kg, po. The data set is classed as organism-based. The conditions noted are these: in vivo.
For `Cn1ncc2c(NC(=O)NCc3cc(C(C)(C)C)nn3-c3cccc(Cl)c3)cccc21`, the Activity entry was “Non-Toxic”.

Values taken from ChEMBL document CHEMBL4699502, “Discovery of 1-(1H-indazol-4-yl)-3-((1-phenyl-1H-pyrazol-5-yl)methyl) ureas as potent and thermoneutral TRPV1 antagonists” (Bioorg Med Chem Lett, 2020).
